Laboratory results as given in article PMC5701947, “β1-Adrenergic Receptor Contains Multiple IA^k and IE^k Binding Epitopes That Induce T Cell Responses with Varying Degrees of Autoimmune Myocarditis in A/J Mice” (Frontiers in Immunology, 2017).
Entries after “also recorded” stand apart in the source; their conditions may differ. Values belong to the compound of their own block, whether it stands above or below them. Residues, ends and D or L forms follow the SMILES beside them. No end group written: not given here.

Experiments:
[1] = molecular target: T1, IA^k (Mus musculus, UniProt P01910+P06343); test: MHC class II-binding assay, IA^k; design: species or system A/J mice; settings: competition with biotinylated HEL 46–61 (1 µM); empty IA^k monomers 0.35 µg; competitor 0.00001–100 µM; pH 7.0, overnight, RT; DELFIA europium fluorescence 340/615 nm; mean ± SEM, three experiments with two replicates each
T1 construct: soluble IA^k and IE^k monomers were expressed; class II-associated invariant-chain peptide (CLIP) 88–102 (VSQMRMATPLLMRPM) with thrombin cleavage site (cleaved yes); made in house; host or cells: baculovirus expression (sf9 cells are named only for the IA^k dextramer constructs)
T1 sequence (P01910 24-218 limits assumed): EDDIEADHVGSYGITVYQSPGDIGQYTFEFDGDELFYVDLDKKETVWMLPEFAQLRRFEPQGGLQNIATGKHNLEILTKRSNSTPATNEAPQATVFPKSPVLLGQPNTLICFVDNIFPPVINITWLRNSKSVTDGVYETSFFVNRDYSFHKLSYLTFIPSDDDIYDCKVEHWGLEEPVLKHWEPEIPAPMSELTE
T1 sequence (P06343 28-224 limits assumed): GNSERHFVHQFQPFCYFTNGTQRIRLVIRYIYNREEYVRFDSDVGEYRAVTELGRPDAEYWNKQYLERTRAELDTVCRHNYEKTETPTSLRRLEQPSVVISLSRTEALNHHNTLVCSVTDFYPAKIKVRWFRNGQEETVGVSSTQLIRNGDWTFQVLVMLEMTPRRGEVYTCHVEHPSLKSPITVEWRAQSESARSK
Experimental: A/J mice express two MHC class II alleles, IA^k and IE^k ([33], [34]), and to determine the affinities of β1AR peptides, soluble IA^k and IE^k monomers were expressed ([34], [35]). In brief, the β-chain in each of IA^k and IE^k constructs contain sequence for class II-associated invariant-chain peptide 88–102 (VSQMRMATPLLMRPM) linked with thrombin cleavage site ([34], [35]). After expressing in the baculovirus, soluble IA^k and IE^k monomers were treated with thrombin (20 U/mg; Novagen, Madison, WI, USA) to release class II-associated invariant-chain peptide leading us to obtain empty IA^k and IE^k molecules. Reaction mixtures were prepared to include empty IA^k or IE^k monomers (0.35 µg), competitor peptides (β1ARAc 171–190, β1ARAc 181–200, β1ARAc 201–220, and β1ARAc 211–230) (0.00001–100 µM), and constant amounts of the biotinylated reference peptides HEL 46–61 (for IA^k) or MCC 82–103 (for IE^k) (1 µM) in a buffer containing 50 mM sodium phosphate pH 7.0, 100 mM sodium chloride, 1 mM EDTA, and 1 × protease inhibitor (Sigma-Aldrich, St. Louis, MO, USA) ([36]–[38]). After incubating overnight at RT, the mixtures were transferred to 96-well white fluorescence plates coated with anti-IA^k (clone 10-2.16, BioXcell, West Lebanon, NH, USA), and anti-IE^k (clone M5/114, BioXcell) Abs (10 µg/ml) in 0.2 M sodium phosphate buffer, pH 6.8, blocked with 2% bovine casein; and the plates were incubated on a rocker at RT for 1 h. Finally, after adding 100 µl of europium-labeled streptavidin (0.1 µg/ml) and dissociation-enhanced lanthanide fluoroimmunoassay (DELFIA) enhancement solution (Perkin Elmer) sequentially, fluorescence intensities were measured at excitation/emission wavelengths of 340/615 nm using a Victor Multilabel Plate Reader (Perkin Elmer). The IC50 values were determined based on the concentrations of competitor peptides needed to prevent 50% binding of the reference peptides as we have described previously ([26], [28], [30]).

[2] = tested on: non-cardiac tissues (brain, lung, liver, kidney); settings: mouse, in vivo
[3] = tested on: rabbits, rats, and mice; settings: cited from earlier work
Text: While, an assumption made in these studies that a single epitope of β1AR can act as an immunogen in various species despite the major histocompatibility complex (MHC) alleles to be different was found valid, identification of other potential immunodominant epitopes, if any, was not explored. Lik ... || In this report, we describe identification of T cell epitopes of β1AR in A/J mice that are highly susceptible to lymphocytic myocarditis induced by various cardiac antigens namely, Myhc ([28]), cardiac troponin I ([47]), ANT ([26]), and BCKD kinase ([30]). Importance of β1AR in the cardiac disease has long been investigated in that patients with myocarditis/DCM, in particular, IDCM show β1AR-reactive antibodies.

[4] = tested on: T cells (lymph node cells/splenocytes from immunized animals); test: T cell proliferation assay ([3H]-thymidine); type: cell-based, A/J mice; settings: for T cell responses: fold vs medium control; for T cell responses (in words): proliferation, 0–100 µg/ml, 2 days + 16 h [3H]-thymidine, cpm
Experimental: At termination, lymph nodes (maxillary, mandibular, axillary, inguinal, and popliteal) and spleens were harvested from immunized animals to prepare single cell suspensions. Similarly, splenocytes were prepared from naive animals. After lysing the erythrocytes and washing, cell pellets were suspended in RPMI medium containing 10% fetal bovine serum, 1 mM sodium pyruvate, 4 mM L-glutamine, 1 × each of non-essential amino acids and vitamin mixture, and 100 U/ml penicillin–streptomycin (Lonza, Walkersville, MD, USA; hereafter called growth medium). In some experiments, CD4 T cells and CD8 T cells were enriched to a purity of ~95% by negative selection based on magnetic separation using IMAG (BD Biosciences, San Jose, CA, USA) ([31]). To stimulate CD4 and CD8 T cells, syngeneic naive irradiated splenocytes loaded with peptides were used as antigen-presenting cells at a ratio of 1:1. Cells were stimulated at a density of ~5 × 10^6 cells/ml in triplicates with or without the immunizing peptides (0–100 µg/ml) in growth medium. RNase 43–56 or HEL 46–61 were used as irrelevant controls. After 2 days, cells were pulsed with tritiated ^3[H]-thymidine (1 μCi/well; MP Biomedicals, Santa Ana, CA, USA), and 16 h later, proliferative responses were measured as counts per minute (cpm) using a Wallac liquid scintillation counter (Perkin Elmer, Waltham, MA, USA) ([26], [28], [30]).

[5] = tested on: A/J mice (hearts); test: Induction of myocarditis by active immunization with peptides (histology); type: in vivo; settings: for Myocarditis incidence / Myocarditis incidence (animals with disease/total) / Inflammatory foci: individual non-acetylated peptide, 100 µg per animal; for Myocarditis incidence / Myocarditis incidence (animals with disease/total): CFA/PT, days 0 and 7, day 21; for Inflammatory foci: mean ± SEM of myocarditic animals
[6] = 10 μg/ml, animals immunized with pool IV
[7] = 100 μg/ml, animals immunized with pool IV
[8] = 10 μg/ml, animals immunized with pool VIII
[9] = 100 μg/ml, animals immunized with pool VIII
[10] = 10 μg/ml, animals immunized with pool IX
[11] = 100 μg/ml, animals immunized with pool IX

IC50 [1]: 18.6 ± 1.23 µM
Brain, inflammatory foci [2]: 0
Kidney, inflammatory foci [2]: 0
Liver, inflammatory foci [2]: 20.33 ± 4.83
Lung, inflammatory foci [2]: 2.50 ± 1.34
Compound: CC[C@H](C)[C@H](NC(=O)[C@H](C)NC(=O)[C@H](Cc1ccc(O)cc1)NC(=O)[C@H](C)NC(=O)[C@H](CCCNC(=N)N)NC(=O)[C@H](CC(N)=O)NC(=O)[C@@H](NC(=O)[C@@H](NC(=O)[C@H](Cc1ccccc1)NC(=O)[C@H](CC(=O)O)NC(=O)[C@H](CS)NC(=O)[C@H](CS)NC(=O)[C@H](CCCCN)NC(=O)[C@@H]1CCCN1C(=O)[C@H](CC(=O)O)NC(=O)[C@H](CC(N)=O)NC(C)=O)C(C)C)[C@@H](C)O)C(=O)N[C@@H](C)C(=O)N[C@@H](CO)C(=O)N[C@@H](CO)C(=O)N[C@H](C(=O)O)C(C)C [β1ARAc 211–230] (Ac-NDPKCCDFVTNRAYAIASSV-OH)
Brain, incidence (animals affected/total) [2]: 0/5
Brain, incidence of inflammation [2]: 0%
Kidney, incidence (animals affected/total) [2]: 0/6
Kidney, incidence of inflammation [2]: 0%
Liver, incidence (animals affected/total) [2]: 6/6
Liver, incidence of inflammation [2]: 100%
Lung, incidence (animals affected/total) [2]: 5/6
Lung, incidence of inflammation [2]: 83%

IC50 [1]: 26.1 ± 12.4 µM
Brain, inflammatory foci [2]: 0
Kidney, inflammatory foci [2]: 0
Liver, inflammatory foci [2]: 29.17 ± 6.83
Lung, inflammatory foci [2]: 4.33 ± 0 .21
Compound: Ac-TRARARALVCTVWAISALVS [β1ARAc 171–190]
Brain, incidence (animals affected/total) [2]: 0/6
Brain, incidence of inflammation [2]: 0%
Kidney, incidence (animals affected/total) [2]: 0/6
Kidney, incidence of inflammation [2]: 0%
Liver, incidence (animals affected/total) [2]: 6/6
Liver, incidence of inflammation [2]: 100%
Lung, incidence (animals affected/total) [2]: 6/6
Lung, incidence of inflammation [2]: 100%

IC50 [1]: 97.1 ± 2.07 µM
Brain, inflammatory foci [2]: 0
Kidney, inflammatory foci [2]: 0
Liver, inflammatory foci [2]: 44.50 ± 11.66
Lung, inflammatory foci [2]: 3.17 ± 0.60
Compound: Ac-TVWAISALVSFLPILMHWWR [β1ARAc 181–200]
Brain, incidence (animals affected/total) [2]: 0/6
Brain, incidence of inflammation [2]: 0%
Kidney, incidence (animals affected/total) [2]: 0/6
Kidney, incidence of inflammation [2]: 0%
Liver, incidence (animals affected/total) [2]: 6/6
Liver, incidence of inflammation [2]: 100%
Lung, incidence (animals affected/total) [2]: 6/6
Lung, incidence of inflammation [2]: 100%

Compound: HWWRAESDEARRCYNDPKCCDFVTNR [β1AR 197–222]
Cardiac abnormalities in Balb/c mice (in words) ([3]; Balb/c mice): cardiac abnormalities could be detected in Balb/c mice only at 25 weeks but not at 14 weeks postimmunization
Antibody induction in rodent species (in words) [3]: shown to induce antibodies in various rodent species
Cardiomyopathy on prolonged immunization (in words) ([3]; monthly/biweekly immunizations for 6–18 months): developed cardiac dysfunctions suggestive of DCM, with minimal or no heart infiltrates; also recorded: can develop features of cardiomyopathy during the course of ~1 year with little or no myocarditis
Cardiomyopathic changes in rats (in words) ([3]; rats, prolonged immunization): early cardiomyopathic changes at 1 year, but with no necrosis or fibrosis including changes in heart to body weight ratios

Compound: NDPKCCDFVTNRAYAIASSV [β1AR 211-230, 20-mer of mouse β1AR peptide library]
T cell responses [4, 6]: 3.15 fold
T cell responses [4, 7]: 3.27 fold
Disease severity (in words) ([5]; individual immunization, non-acetylated peptides): mild disease
Myocarditis incidence [5]: 40%
Myocarditis incidence (animals with disease/total) [5]: 2/5
Inflammatory foci [5]: 2.0 ± 1.0

Compound: β1AR 191-210: 20-mer of mouse β1AR peptide library (FLPILMHWWRAESDEARRCY; UniProt P34971 191-210, looked up, fragment)
T cell responses [4, 6]: 1.26 fold
T cell responses [4, 7]: 1.63 fold
Myocarditis incidence [5]: 0%
Myocarditis incidence (animals with disease/total) [5]: 0/5
Inflammatory foci [5]: 0

Compound: β1AR 201-220: 20-mer of mouse β1AR peptide library (AESDEARRCYNDPKCCDFVT; UniProt P34971 201-220, looked up, fragment)
T cell responses [4, 6]: 1.08 fold
T cell responses [4, 7]: 1.37 fold
Myocarditis incidence [5]: 0%
Myocarditis incidence (animals with disease/total) [5]: 0/5
Inflammatory foci [5]: 0

Compound: β1AR 381-400: 20-mer of mouse β1AR peptide library (CCARRAACRRRAAHGDRPRA; UniProt P34971 381-400, looked up, fragment)
T cell responses [4, 8]: 1.10 fold
T cell responses [4, 9]: 1.45 fold
T cell responses (in words) [4]: did not show T cell responses
Myocarditis incidence [5]: 0%
Myocarditis incidence (animals with disease/total) [5]: 0/5
Inflammatory foci [5]: 0

Compound: β1AR 391-410: 20-mer of mouse β1AR peptide library (RAAHGDRPRASGCLARAGPP; UniProt P34971 391-410, looked up, fragment)
T cell responses [4, 8]: 1.03 fold
T cell responses [4, 9]: 1.18 fold
T cell responses (in words) [4]: did not show T cell responses
Myocarditis incidence [5]: 0%
Myocarditis incidence (animals with disease/total) [5]: 0/5
Inflammatory foci [5]: 0

Compound: β1AR 431-450: 20-mer of mouse β1AR peptide library (RLLEPWTGCNGGTTTVDSDS; UniProt P34971 431-450, looked up, fragment)
T cell responses [4, 10]: 1.14 fold
T cell responses [4, 11]: 1.18 fold

Compound: β1AR 441-460: 20-mer of mouse β1AR peptide library (GGTTTVDSDSSLDEPGRQGF; UniProt P34971 441-460, looked up, fragment)
T cell responses [4, 10]: 0.79 fold
T cell responses [4, 11]: 1.01 fold

Compound: β1AR 451-466: 16-mer of mouse β1AR peptide library (SLDEPGRQGFSSESKV; UniProt P34971 451-466, looked up, fragment)
T cell responses [4, 10]: 0.95 fold
T cell responses [4, 11]: 1.16 fold
